Source: patent US20130046025A1, “COMPOSITION WITH LOW SKIN IRRITATION FOR TRANSDERMAL DELIVERY OF TOLTERODINE” (SK Chemicals Co., Ltd., priority 2010, published 2013)

System: forearm skin of a test subject
Experiment: Skin irritation test of patches (primary skin irritation index)
Assay type: in vivo
Conditions: for Effect on relief of skin irritation caused by tolterodine, result in words: conclusion from Table 4, essential oil in tolterodine patch
Protocol: Each of the patches produced in Production Examples 1 and 2 was cut to a size of 1 cm×1 cm. The specimen was attached to the forearm skin of a test subject and fixed with a medical tape to prevent detachment during the test period. After 24 hr, the medical tape and the patch were removed with care. After 1 hr, the primary skin irritation index of the patch for skin irritations including erythema and edema was determined with the help of an expert.
Skin irritation tests were conducted in the same manner as in Test Example 1.

| Compound | Effect on relief of skin irritation caused by tolterodine, result in words | Skin irritation (erythema, edema), result in words (conclusion from Table 2) |
| --- | --- | --- |
| CC(C)=CCC[C@](C)(O)C1CC=C(C)CC1 (stereo partly drawn) [bisabolol] | outstanding effects on skin irritation relief |  |
| C=CCc1ccc(O)c(OC)c1 [eugenol] | outstanding effects on skin irritation relief |  |
| Cc1ccc(O)c([C@H](CCN(C(C)C)C(C)C)c2ccccc2)c1 [tolterodine, 2-[(1R)-3-(diisopropylamino)-1-phenylpropyl)-4-methylphenol] |  | causing skin irritations |
